Source: US20170232083A1, “METHODS OF DIAGNOSIS AND TREATMENT OF CELIAC DISEASE IN CHILDREN” (priority 2014, published 2017)

System: PBMC (polyclonal gluten-specific T cells) of paediatric and adult CD patients
Assay: IFN-γ ELISpot of PBMC after 3 day oral wheat challenge (SFU, % of maximal peptide response, dominance scores, EC50; Examples 5-6)
Type: cell-based, human
Conditions: for IFN-γ ELISpot response: after oral wheat challenge
[1] = patient A, 11-17 yrs, cut-off 10 SFU
[2] = patient E, H, 11-17 yrs, cut-off 10 SFU
[3] = patient F, 11-17 yrs, cut-off 10 SFU
[4] = patient G, 11-17 yrs, cut-off 10 SFU
[5] = patient H (HLA-DQ2.5 homozygote), 3-5yrs, cut-off 10 SFU
[6] = patient H, 11-17 yrs, cut-off 10 SFU
[7] = patient ID not given, 11-17 yrs, cut-off 10 SFU
[8] = patient ID not given, max peptide 95 SFU
[9] = patient N, 3-5yrs, cut-off 10 SFU
[10] = patient P, 11-17 yrs, cut-off 21.6 SFU
[11] = patient Q, 11-17 yrs, cut-off 10 SFU
[12] = patient U, H, 11-17 yrs, cut-off 10 SFU
[13] = patient V, 6-10 yrs, cut-off 10 SFU
[14] = patient Y, 6-10 yrs, cut-off 10 SFU
[15] = patient eleven, 6-10 yrs, cut-off 10 SFU
[16] = patient four, 3-5yrs, cut-off 10 SFU
[17] = patient seven, 6-10 yrs, cut-off 10.5 SFU
[18] = patient ten, 3-5yrs, cut-off 10 SFU
[19] = patient three, 6-10 yrs, cut-off 10.5 SFU
[20] = patient twelve, 11-17 yrs, cut-off 10 SFU
[21] = patient two, 3-5yrs, cut-off 10 SFU

| Sequence | IFN-γ ELISpot response [1] [SFU] | IFN-γ ELISpot response [2] [SFU] | Significant response as percentage of maximal peptide SFU (patient E, max peptide 224 SFU) | IFN-γ ELISpot response [3] [SFU] | IFN-γ ELISpot response [4] [SFU] | IFN-γ ELISpot response [5] [SFU] | IFN-γ ELISpot response [6] [SFU] | IFN-γ ELISpot response [7] [SFU] | Significant response as percentage of maximal peptide SFU [8] | Significant response as percentage of maximal peptide SFU (patient II, max peptide 15 SFU) | IFN-γ ELISpot response [9] [SFU] | IFN-γ ELISpot response [10] [SFU] | IFN-γ ELISpot response [11] [SFU] | Significant response as percentage of maximal peptide SFU (patient Q, max peptide 97 SFU) | IFN-γ ELISpot response [12] [SFU] | IFN-γ ELISpot response [13] [SFU] | IFN-γ ELISpot response [14] [SFU] | IFN-γ ELISpot response [15] [SFU] | IFN-γ ELISpot response [16] [SFU] | IFN-γ ELISpot response [17] [SFU] | other results |
| --- | --- | --- | --- | --- | --- | --- | --- | --- | --- | --- | --- | --- | --- | --- | --- | --- | --- | --- | --- | --- | --- |
| PFPEQPEQPYPQQ | 0 | 14 | (6-10% = ^) | 8 | 1 | 11 | 1 | 14 | ′ (11-20% = ′) | + (>70% = +) | 1 | 15 | 19 | ′ (11-20% = ′) | 2 | 7 | 5 | 3 | 4 | 3 | Significant response as percentage of maximal peptide SFU (patient M, max peptide 48 SFU): ′ (11-20% = ′); Significant response as percentage of maximal peptide SFU (patient five, max peptide 48 SFU): ′′ (21-40% = ′′); IFN-γ ELISpot response [18]: 5 SFU; IFN-γ ELISpot response [19]: 9 SFU; IFN-γ ELISpot response [20]: 2 SFU; IFN-γ ELISpot response [21]: 6 SFU |
| QFIQPEQPFPQQ | 0 | 31 | ′ (11-20% = ′) | 28 | 2 | 8 | 3 | 21 | ′′ (21-40% = ′′) | + (>70% = +) | 6 | 8 | 25 | ′′ (21-40% = ′′) | 13 | 19 | 3 | 0 | 6 | 8 | Significant response as percentage of maximal peptide SFU (patient F, max peptide 178 SFU): ′ (11-20% = ′); Significant response as percentage of maximal peptide SFU (patient J, max peptide 196 SFU): ′ (11-20% = ′); Significant response as percentage of maximal peptide SFU (patient K, max peptide 53 SFU): ′′ (21-40% = ′′); Significant response as percentage of maximal peptide SFU (patient U, max peptide 81 SFU): ′ (11-20% = ′); Significant response as percentage of maximal peptide SFU (patient V, max peptide 35 SFU): ′′′ (41-70% = ′′′); IFN-γ ELISpot response [18]: 6 SFU; IFN-γ ELISpot response [19]: 30 SFU; IFN-γ ELISpot response [20]: 6 SFU; IFN-γ ELISpot response [21]: 7 SFU |
| QPPFSEEQEQPLPQ [gluten peptide described by Vader et al, reference compound] |  |  |  |  |  |  |  |  |  |  |  |  |  |  |  |  |  |  |  |  | positive polyclonal T cell response after wheat challenge, proportion (Example 5, 2/30): 6.7%; polyclonal T cell responses following wheat challenge, volunteers (Example 6, 2/30): 6.7% |
